Key:
BET BD1 = target: BET BD1; design: method as in Zhao et al., 2018; conditions: ref Zhao et al., 2018, cited from earlier work
[1] = system: non-BET bromodomain-containing proteins; design: method as in Zhao et al., 2018; conditions: ref Zhao et al., 2018; cited from earlier work
[2] = Dynamic PET/CT imaging in mice, baseline uptake and biodistribution; type: in vivo, male Balb/c mice
Procedure: Following the successful radiosynthesis, we stepped forward to evaluate [^11C]1 as a potential BET PET radiotracer by PET imaging experiments in rodents. Dynamic PET imaging in male Balb/c mice was conducted following the injection of [^11C]1 via the tail vein at the dose of 3.7–7.4 Mbq for each scan. Each dynamic PET imaging scan lasted for 60 min and followed by a 10-min of computed tomography (CT) scan. The PET/CT imaging analysis was then performed by dynamic data collection and image reconstruction. The biodistribution of [^11C]1 in the whole-body of mice is initially studied. As depicted in Figure 2, four time-points (5, 10, 30, and 60 min) after [^11C]1 injection were selected to evaluate the uptake, biodistribution, and clearance of the radioligand in the organs of interests. […] In the heart, spleen, and lung, the uptakes of radioligand reached a peak sharply and followed by gradual wash-out post-injection.
(§1) The general procedure for rodent PET/CT studies was described previously ([Bai et al., 2019], [2020a]). Briefly, the PET/CT scan was carried out by a Triumph Trimodality/SPECT scanner (Gamma Medica, Northridge, CA, United States). Mice were arranged under anesthetized 2% isoflurane (Patterson Vet Supply, Inc., Greeley, CO, United States) in a carrier of 2 L/min medical oxygen during the imaging scanning. [^11C]1 (3.7–7.4 Mbq per animal, n = 2) was injected in mice via a lateral tail vein catheterization before PET acquisition. For the blocking study, the radioligand was administrated after CF53, or JQ1 was injected via a lateral tail vein catheterization 5-min before the start of PET acquisition. Dynamic PET acquisition lasted for 60 min followed by 10-min CT for anatomic co-registration. PET data were reconstructed using a 3D-MLEM method resulting in full width at a half-maximum resolution of 1 mm. These files were imported and analyzed using AMIDE ([Loening and Gambhir, 2003]) (a medical imaging data examiner) software (an open-source software, Los Angeles, CA, United States) and PMOD (PMOD 4.01, PMOD Technologies Ltd., Zurich, Switzerland).
(§2) Dynamic PET data were collected and the corresponding images were reconstructed by 3D-MLEM method resulting in full width at a half-maximum resolution of 1 mm. Volumes of interest (VOIs) were generated manually in forms of spheres under the guide of high-resolution CT structural images. TACs were exported as decay-corrected activity per unit volume. The TACs were expressed as percent injected dose per unit volume (%ID/cc) for analysis.

BET proteins = experiment: PET/CT blocking studies in mice (specific binding); type: in vivo; conditions: for radioactivity reduction in the whole-brain: based on TACs; for decrease of radioligand concentration in organs of interest: average over organs
Procedure: To evaluate the specific binding of [^11C]1, the blocking studies were carried out. Mice were pre-treated with unlabeled 1 (1.0 mg/kg) and JQ1 (1.0 mg/kg) at 5-min prior to the administration of [^11C]1. The PET/CT imaging and time-activity curves (TAC) of baseline and blocking studies are shown separately in Figure 3.
as §1, §2

distribution in blood-rich organs ([2]; heart, liver and kidney, i.v. tail vein, 5-60 min post-injection) | time of max brain uptake ([2]; post-injection, whole brain) | brain-blood barrier (BBB) penetration ([2]; whole brain PET) | max brain uptake ([2]; whole-brain analysis, i.v.) | SMILES | Ki (BET BD1; binding affinity to BET BD1) | Kd (BET BD1; to BET BD1, printed in Figure 1) | selectivity over non-BET bromodomain-containing proteins [1] | radioactivity reduction in the whole-brain (BET proteins; JQ1-blocking (1.0 mg/kg JQ1)) | decrease of radioligand concentration in organs of interest (BET proteins; JQ1-blocking: pre-treated with JQ1 (1.0 mg/kg) 5 min prior) | radioactivity reduction in the whole-brain (BET proteins; self-blocking (1.0 mg/kg CF53)) | decrease of radioligand concentration in organs of interest (BET proteins; self-blocking: pre-treated with unlabeled 1 (1.0 mg/kg) 5 min prior)
 |  |  |  | COc1cc2c(cc1-c1c(C)noc1C)[nH]c1nc(C)nc(Nc3cc(C4CC4)nn3C)c12 [Compound 1] | < 1 nM | 0.49 to 2.2 nM | high selectivity |  |  |  | 
highly distributed | ~2 min | limited | 0.9 % ID/cc | Cc1nc(Nc2cc(C3CC3)nn2C)c2c(n1)[nH]c1cc(-c3c(C)noc3C)c(O[11CH3])cc12 [[^11C]1] |  |  |  | ~50% | over 40% | ~50% | over 40%

Reference: paper PMC7434981, “Development of a Novel Positron Emission Tomography (PET) Radiotracer Targeting Bromodomain and Extra-Terminal Domain (BET) Family Proteins” (Frontiers in Molecular Biosciences, 2020)
